For one series, the system named is caspase-9. Nature of the series: Caspase-Glo 9 assay. Format: cell-based, human. The following applies: MDA-MB-231 cells, 0.3 µM, 24 h, versus DMSO-treated cells. The procedure: (§1) Caspases-3/7, -8, and -9 activities were determined using the Caspase-Glo® 3/7, 8, and 9 Assay Systems (Promega Corporation, Madison, WI, USA) as previously described.
For series [1], the system named is MDA-MB-231 human breast cancer cells. Nature of the series: MTT cell viability assay, MDA-MB-231. Format: cell-based. As for the experimental part: (§2) The three cell lines adopted in this work (MCF-7, MDA-MB-231 and MCF-10A) were obtained from the American Type Culture Collection (ATCC, Manassas, VA, USA). MCF-7 human breast cancer cells were cultured in Dulbecco’s modified Eagle’s medium/nutrient mixture Ham F-12 (DMEM/F12), added with 10% fetal bovine serum (FBS) and 100 U mL^−1 penicillin/streptomycin. MDA-MB-231 human breast cancer cells were maintained in DMEM/F12 added with 5% FBS, 1% L-glutamine and 100 U mL^−1 penicillin/streptomycin. MCF-10A human mammary epithelial cells were cultured in DMEM/F12 medium added with 5% horse serum (HS, Thermo Fisher Scientific, Milan, Italy), 100 U mL^−1 penicillin/streptomycin, 0.5 mg mL^−1 hydrocortisone, 20 ng mL^−1 human epidermal growth factor (hEGF), 10 mg mL^−1 insulin, and 0.1 mg mL^−1 cholera enterotoxin (Sigma–Aldrich, Milan, Italy). Cells were cultured at 37 °C in a humidified atmosphere (95% air and 5% CO2) and periodically screened for checking contamination.
(§3) The 3-(4,5-dimethylthiazol-2-y1)-2,5-diphenyltetrazolium Bromide (MTT, Sigma–Aldrich, Milan, Italy) assay was used for determining cell viability. Cells were seeded on forty-eight well plates and cultured in a complete medium. Next, cells were serum-deprived (24 h). Then, cells were exposed to the tested compounds in phenol-red-free medium added with 1% of serum for 72 h. After medium removal, MTT solution was added to each well (0.5 mg/mL) and incubated at 37 °C (2 h). Cells were lysed (DMSO), and the optical density was measured (570 nm) using a microplate reader. Mean absorbance was reported as a percentage versus control, and IC50 values were calculated using GraphPad Prism 8 software (version 8.4.3., GraphPad Inc., San Diego, CA, USA). The selectivity index was obtained by the ratio of IC50 values calculated for normal and cancer cells. Data represent three independent experiments; standard deviations (SD) were reported.
A general note: Formazan colour is commonly taken as a measure of viable cells.

Another series has as its system caspase-3/7. Briefly: Caspase-Glo 3/7 assay. The following applies: MDA-MB-231 cells, 0.3 µM, 24 h, versus DMSO-treated cells. Format: cell-based, human. As for the experimental part:
as §1

Series [2] deals with MCF-7 human breast cancer cells. Briefly: MTT cell viability assay, MCF-7. Format: cell-based. The procedure: as §2, §3
In another series the test system is Balb/c mice. Briefly: In vivo safety study, one-week intraperitoneal administration. Set-up: species or system mouse. The following applies: 20 mg/kg i.p. The procedure:
Animals: The study utilized male Balb/c mice aged 6–8 weeks, with weights ranging from 22 to 26 g. These mice were sourced from a reputable supplier and maintained in a certified pathogen-free facility. They were housed in polycarbonate cages under controlled environmental conditions (temperature: 20–22 °C; humidity: 40–60%) with a 12 h light/dark cycle. Mice had ad libitum access to filtered water and a standard rodent chow diet, ensuring their nutritional needs were met throughout the study.
Preparation of Test Item: The investigational solution that contains the compound 1 was prepared before administration to ensure its stability and efficacy. The preparation involved dissolving compound 1 in a solvent mixture comprising 5% ethanol and Cremophor, diluted in 95% phosphate-buffered saline (PBS). […] All solutions were prepared in a sterile environment to minimize the risk of contamination.
Experimental Design: Mice were randomly assigned to one of two experimental groups to eliminate bias in treatment effects. Group 1 (negative control) consisted of six mice that received intraperitoneal injections of the vehicle solvent (5% ethanol–Cremophor in 95% PBS). Group 2 (compound 1 treatment group) comprised seven mice receiving compound 1 at a dosage of 20 mg/kg body weight, administered via intraperitoneal injection. The dosage was selected based on preliminary dose–response studies ensuring safety and efficacy.
Treatment Protocol: The treatment regimen involved administering injections every two days over a one-week period, culminating in a total of three injections per mouse. This schedule was designed to maintain consistent therapeutic levels of compound 1 in the bloodstream, providing sufficient time for both pharmacological effects and assessment of any potential adverse reactions.
Assessment Parameters: Behavioral observations were meticulously recorded on a daily basis throughout the treatment period. Trained personnel monitored the mice for signs of toxicity or any deviations from normal behavior, including changes in activity levels, grooming patterns, and feeding behavior [35]. Body weight was measured at baseline prior to treatment, immediately before each injection, and at the conclusion of the treatment period to assess any potential effects of compound 1 on growth and overall health.
After the treatment phase, mice were humanely euthanized using approved methods to minimize distress. Major organs, including the spleen, liver, lungs, brain, heart, and kidneys, were carefully excised, weighed, and subjected to morphological examination to identify any structural abnormalities or pathological changes. The organ coefficients were calculated using the following formula:Organ Coefficient (mg/10 g) = 10 × […]/weight of the mouse.
Blood samples were collected post-euthanasia using heparinized tubes to prevent coagulation. Following collection, samples were centrifuged at 1500 rpm for 7 min to separate the plasma, which was then used for biochemical analysis. A clinical chemistry analyzer measured various parameters, including transaminases (AST, ALT), creatinine, uric acid, and key electrolytes (sodium, potassium, chloride, calcium, and phosphorus), alongside alkaline phosphatase levels. Hematological evaluations were performed, including red blood cell (RBC) counts, hemoglobin (HB) levels, hematocrit (HCT), mean corpuscular hemoglobin (MCH), and white blood cell (WBC) counts.

The nature of series [3]: Hydrolytic stability test by 1H NMR. The class given is physicochemical. As for the experimental part: ^1H NMR spectra were recorded at 298 K on a Bruker Avance 400 spectrometer operating at 400 MHz (^1H) and referred to the residual proton deuterated solvent peaks (^1H: (CD3)2SO, δ 2.50).
The hydrolytic chemical stability is an important step in early drug discovery for ensuring the potential development of compounds useful in therapy. […]

Regarding `Cc1cc(C=NN=Cc2cc(C)c3[nH]c4ccc(Br)cc4c3c2C)c(C)c2c1[nH]c1ccc(Br)cc12` [Compound 1, N,N’-bis-(6-bromo-1,4-dimethyl-9H-carbazol-3-ylmethylene)-hydrazine], the “increase of caspase-9 activity” value in the series with caspase-9 is given as 40%. Further, the IC50 in series [1] (Homo sapiens, MDA-MB-231, MTT, 72 h, mean ± SD of three experiments) stood at 300 ± 200 nM. For the same compound, the “SI MDA-MB-231” value in series [1] (ratio of IC50 values for normal (MCF-10A) and cancer cells (MDA-MB-231)) is above 333.3. Moreover, in the series with caspase-3/7, the “increase of caspase-3 and -7 activity” value was “about 70%”. This compound also gave a concentration for half-maximal inhibition (IC50) in series [2] (Homo sapiens, MCF7, MTT, 72 h, mean ± SD of three experiments) of 600 ± 300 nM. Moreover, in series [2] (ratio of IC50 values for normal (MCF-10A) and cancer cells (MCF-7)), the “SI MCF-7” value is reported as above 166.7. For the same compound, in the series with Balb/c mice (one week), the behavior result is recorded as “normal behavioral patterns”, the “lung coefficient versus negative control” value was “notable increase” and the “toxic effects related to treatment” value is “no observable toxic effects”. Besides, in the series on Balb/c mice (one week, p > 0.05), the “body weight change versus negative control” value was “no significant differences”; the “hematological parameters (WBC, RBC, HB, HCT, MCV, MCH, MCHC, platelet counts) versus control” value was “no significant differences”; the “organ weights (spleen, liver, brain, heart, kidney, lung) versus negative control” value is recorded as “no significant differences”; the “serum AST, ALT, creatinine, uric acid and electrolyte profiles versus control” value is “comparable”. Further, in the series with Balb/c mice (three injections over one week), the “organ weight coefficient Brain” value is 0.13 ± 0.03 10× g (organ)/g(animal), the “organ weight coefficient Heart” value is 0.06 ± 0.01 10× g (organ)/g(animal), the “organ weight coefficient Kidney” value is given as 0.07 ± 0.01 10× g (organ)/g(animal) and the “organ weight coefficient Liver” value was 0.54 ± 0.03 10× g (organ)/g(animal). Moreover, in the series with Balb/c mice (three injections over one week), the “organ weight coefficient Lung” value is listed as 0.11 ± 0.01 10× g (organ)/g(animal) and the “organ weight coefficient Spleen” value is 0.07 ± 0.02 10× g (organ)/g(animal). In series [3] (DMSO-d6/D2O (90:10), 37 °C, 24 h), the “hydrolytic stability (1H NMR spectra changes)” value is recorded as “no changes were recorded”. Besides, the “stability in the solid state” value in series [3] (solid state) is listed as “stable in the solid state even years after synthesis”.

By IC50 is commonly meant the concentration at which inhibition is half-maximal.

The record behind these values is PMC12030284, “Anti-Breast Cancer Properties and In Vivo Safety Profile of a Bis-Carbazole Derivative” (Pharmaceutics, 2025).
